The text below walks through data of PMC8805605, “Discovery of Dimeric Arylsulfonamides as Potent ADAM8 Inhibitors” (ACS Medicinal Chemistry Letters, 2021).

One assay concerns the target T1, ADAM17 (Homo sapiens, UniProt P78536).
T1 construct: kind gift of Franka Scharfenberg, University of Kiel
Briefly: ADAM17 fluorometric inhibition assay. The format is biochemical. Particulars: recombinant enzyme, mean of three independent experiments in duplicate, read-out: In vitro inhibitory activity IC50 on ADAM17. How it is done: The newly synthesized bivalent derivatives 1–3 were then tested in vitro on human recombinant ADAM8 in comparison with JG26 by a fluorometric assay. The inhibitory activity against a panel of MMPs and ADAM10/17 was determined as well to assess their selectivity profile.
(RFU). Percent of inhibition was calculated from control reactions without the inhibitor. IC50 was determined using the formula: v i/v o = 1/(1 + [I]/ IC50), where v i is the initial velocity of substrate cleavage in the presence of the inhibitor at concentration [I] and v o is the initial velocity in the absence of the inhibitor. Results were analyzed using SoftMax Pro software (version 5.4.3, Molecular Devices, Sunnyvale, CA) and Prism Software version 5.0 (GraphPad Software, Inc., La Jolla, CA, USA).
ADAM8 and ADAM17 inhibition assays
Recombinant ADAM8 and ADAM17 (kind gift of Franka Scharfenberg, University of Kiel) were diluted in assay buffer (25 mM Tris HCl, pH 8.0. 6x10-4 % Brij, 10 mM CaCl2, 10 mM ZnCl2) to a working concentration of 250 ng and incubated with inhibitors for 45 min in a total volume of 50 µL.
The fluorescent substrate PepDAB1310 was added in a concentration of 10 µM (in a volume of 50 µL). […]

Assay [1] addresses T2, Recombinant human MMP-14 catalytic domain (Homo sapiens, UniProt P50281).
T2 construct: Recombinant human MMP-14 catalytic domain was a kind gift of Prof; Gillian Murphy; kind gift of Prof; Gillian Murphy (Department of Oncology, University of Cambridge, UK)
Put plainly: MMP-14 fluorometric inhibition assay. The format is biochemical. To be noted: mean of three independent experiments in duplicate, read-out: In vitro inhibitory activity IC50 on MMP-14. The method, then: The newly synthesized bivalent derivatives 1–3 were then tested in vitro on human recombinant ADAM8 in comparison with JG26 by a fluorometric assay. The inhibitory activity against a panel of MMPs and ADAM10/17 was determined as well to assess their selectivity profile. […]
VI. Biological Activity on Isolated Enzymes
MMP and ADAM10 inhibition assays.
Recombinant human MMP-14 catalytic domain was a kind gift of Prof. Gillian Murphy (Department of […]
Oncology, University of Cambridge, UK). Pro-MMP-1, pro-MMP-2, and pro-MMP-9, were purchased […]
from Calbiochem (Merck-Millipore). Pro-MMP-12 and ADAM10 were purchased from R&D Systems.
Proenzymes were activated immediately prior to use with p-aminophenylmercuric acetate (APMA 2 […]
mM for 1 h at 37°C for MMP-2 and MMP-1, 1 mM for 1 h at 37°C for MMP-9). Pro-MMP-12 was […]
auto activated by incubating in the fluorometric assay buffer (FAB: Tris 50 mM, pH = 7.5, NaCl 150 […]
mM, CaCl2 10 mM, Brij 35 0.05% and DMSO 1%) for 30 h at 37°C. For assay measurements, each […]
inhibitor stock solution (DMSO, 10 mM) was further diluted in FAB at seven different concentrations.
Activated enzyme (final concentration 0.56 nM for MMP-2, 1.3 nM for MMP-9, 1.0 nM for MMP- […]
14cd, 2.0 nM for MMP-1, 2.3 nM for MMP-12 and 20 nM for ADAM10) and inhibitor solutions were […]
incubated in the assay buffer for 3 h at 25 °C. ADAM10 was incubated for 1 h at 37°C in a different […]
buffer at pH 9 (Tris 25 mM, ZnCl2 25 µM, Brij-35 0.005 %). After the addition of 200 µM solution of […]
the fluorogenic substrate Mca-Lys-Pro-Leu-Gly-Leu-Dap(Dnp)-Ala-Arg-NH2 (Bachem) for all the […]
enzymes in DMSO (final concentration 2 µM for all enzymes, 10 µM for ADAM10), the hydrolysis […]
was monitored every 10 sec. for 15 min. recording the increase in fluorescence (λ ex = 325 nm, λ em = […]
400 nm) using a Molecular Devices SpectraMax Gemini XPS plate reader. The assays were performed […]
in triplicate in a total volume of 200 μL per well in 96-well microtitre plates (Corning, black, NBS).
Control wells lack inhibitor. The MMP inhibition activity was expressed in relative fluorescent units […]
(RFU). Percent of inhibition was calculated from control reactions without the inhibitor. IC50 was determined using the formula: v i/v o = 1/(1 + [I]/ IC50), where v i is the initial velocity of substrate cleavage in the presence of the inhibitor at concentration [I] and v o is the initial velocity in the absence of the inhibitor. Results were analyzed using SoftMax Pro software (version 5.4.3, Molecular Devices, Sunnyvale, CA) and Prism Software version 5.0 (GraphPad Software, Inc., La Jolla, CA, USA). […]

Assay [2] relates to ADAM8-dependent shedding of CD23 in double-stable HEK cells (ADAM8/CD23). Briefly: Cell-based CD23 shedding assay (soluble CD23 ELISA). To be noted: Homo sapiens, HEK293, 24 h incubation, 125 nM to 10 μM, ELISA of supernatants, read-out: IC50 for shedding of CD23 (soluble CD23 release). The method, then:
Next, these compounds were tested for their ability to inhibit the shedding of an ADAM8-dependent cell surface protein, the low affinity IgE receptor CD23, […]. In brief, a human embryonic kidney (HEK) cell line expressing ADAM8 and CD23[13] was incubated with different concentrations of inhibitors, and the release of soluble CD23 in the cell supernatants was determined by a CD23 enzyme-linked immunosorbent assay (ELISA) (Figure 4).
Figure 4 Effects of new compounds 1–3 and JG26 (125 nM to 10 μM) on the shedding of CD23 in a cell-based assay using double-stable HEK cells (ADAM8/CD23). After the incubation of cells with 1–3 and JG26 for 24 h, cell supernatants were collected and subjected to an ELISA to determine the amount of soluble CD23. Data are the mean values from three independent experiments performed in triplicate. […]
VII. Biological Activity on cells
Cell-based shedding assay
HEK293 cells stably transfected with ADAM8 and CD23 were incubated for 24 h at 37°C in the presence of inhibitors in concentrations indicated in DMEM medium supplemented with 10% fetal calf serum. A human soluble CD23 ELISA (R&D Systems, Biotechne, Wiesbaden) was used to detect ADAM8-dependent release of soluble CD23 in the cell culture medium. ELISA experiments were performed in three independent experiments in triplicates. The relative CD23 release (control = 100%) was determined for all samples. […]
Background: An ELISA detects its analyte on a solid surface through an enzyme-linked reagent.

T1 sequence (P78536 215-824, species assumed): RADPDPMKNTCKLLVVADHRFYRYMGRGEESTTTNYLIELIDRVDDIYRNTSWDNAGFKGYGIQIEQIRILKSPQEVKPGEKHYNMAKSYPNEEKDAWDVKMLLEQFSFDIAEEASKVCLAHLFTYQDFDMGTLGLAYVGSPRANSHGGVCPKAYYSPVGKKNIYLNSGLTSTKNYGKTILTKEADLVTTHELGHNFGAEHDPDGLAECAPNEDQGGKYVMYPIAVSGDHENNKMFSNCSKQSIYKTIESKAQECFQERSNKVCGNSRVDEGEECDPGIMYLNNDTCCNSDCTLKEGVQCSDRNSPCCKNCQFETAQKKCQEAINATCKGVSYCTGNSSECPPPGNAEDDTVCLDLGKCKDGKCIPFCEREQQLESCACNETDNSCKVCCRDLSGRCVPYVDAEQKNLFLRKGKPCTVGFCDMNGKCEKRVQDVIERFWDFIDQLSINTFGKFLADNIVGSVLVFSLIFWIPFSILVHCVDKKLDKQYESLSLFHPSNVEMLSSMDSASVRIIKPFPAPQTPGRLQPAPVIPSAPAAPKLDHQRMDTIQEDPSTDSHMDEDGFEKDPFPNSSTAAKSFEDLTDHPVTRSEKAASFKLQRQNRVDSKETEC

As usually defined, the IC50 is the concentration at which inhibition is half-maximal. With `O=C(CCCNC(=O)c1cccc(C(=O)NCCCC(=O)NCCC[C@@H](NS(=O)(=O)c2ccc(OCc3cc(Br)cc(Br)c3)cc2)C(=O)NO)c1)NCCC[C@@H](NS(=O)(=O)c1ccc(OCc2cc(Br)cc(Br)c2)cc1)C(=O)NO` [Compound 1], the IC50 on ADAM17 is 52 nM; in assay [1], 57000 nM; in assay [2], above 1500 nM.
`O=C(NCCC[C@@H](NS(=O)(=O)c1ccc(OCc2cc(Br)cc(Br)c2)cc1)C(=O)NO)c1cccc(C(=O)NCCC[C@@H](NS(=O)(=O)c2ccc(OCc3cc(Br)cc(Br)c3)cc2)C(=O)NO)c1` [Compound 2]: the figures for the IC50 (at ADAM17; in assay [1]; in assay [2]) were 24 nM, 50000 nM and 350 nM, respectively.
The corresponding values for `O=C(NCCC[C@@H](NS(=O)(=O)c1ccc(OCc2cc(Br)cc(Br)c2)cc1)C(=O)NO)NCCC[C@@H](NS(=O)(=O)c1ccc(OCc2cc(Br)cc(Br)c2)cc1)C(=O)NO` [Compound 3] are 55 nM, 234000 nM and 800 nM.
As for `NC(=O)NCCC[C@@H](NS(=O)(=O)c1ccc(OCc2cc(Br)cc(Br)c2)cc1)C(=O)NO` [JG26, reference compound], the IC50 at ADAM17 stood at 1.9 nM; in assay [1] it was 19500 nM; in assay [2], 120 nM.
